Reference: article PMC12959348 (Angewandte Chemie (International ed. in English), 2025)
pIC50: −log10 of the molar value.

Tests used:
[1] = test system: ssDNA (DNA, single strand) CCCTAACCCTAACCCTAACCCTAA; experiment: fluorescence polarization (intrinsic pomalidomide fluorescence); conditions: 100 mM KCl; 10 mM Li-cacodylate, pH 7.4; ligand 0.2 µM; per site
[2] = test system: bcl2 (DNA, G4) GGGCGCGGGAGGAATTGGGCGGG; experiment: fluorescence polarization (pomalidomide fluorescence); conditions: 100 mM K+ (KCl), 10 mM Li-cacodylate, pH 7.4, ligand 0.2 µM, per binding site (two sites per G4)
[3] = test system: telo24 (DNA, G4) TTAGGGTTAGGGTTAGGGTTAGGG; experiment: fluorescence polarization (intrinsic pomalidomide fluorescence); conditions: 100 mM KCl; 10 mM Li-cacodylate, pH 7.4; ligand 0.2 µM; fit assumes two sites per G4; per site
[4] = test system: TERRA (RNA, G4) UAAGGGUAAGGGUAAGGGUAAGGG; experiment: fluorescence polarization (pomalidomide fluorescence); conditions: 100 mM K+ (KCl), 10 mM Li-cacodylate, pH 7.4, ligand 0.2 µM, per binding site (two sites per G4)
[5] = test system: NRAS (RNA, G4) UGUGGGAGGGGCGGGUCUGGGUGC; experiment: fluorescence polarization (intrinsic pomalidomide fluorescence); conditions: 100 mM KCl; 10 mM Li-cacodylate, pH 7.4; ligand 0.2 µM; fit assumes two sites per G4; per site
[6] = test system: dsDNA (DNA, hairpin) TATAGCTATATTTTTTTATAGCTATA; experiment: as above; conditions: 100 mM KCl; 10 mM Li-cacodylate, pH 7.4; ligand 0.2 µM; per site
[7] = test system: bcl2 (DNA, G4) GGGCGCGGGAGGAATTGGGCGGG; experiment: as above; conditions: 100 mM KCl; 10 mM Li-cacodylate, pH 7.4; ligand 0.2 µM; fit assumes two sites per G4; per site
cereblon (CRBN) = target: T1, cereblon (CRBN) (Homo sapiens, UniProt Q96SW2); experiment: TR-FRET displacement of thalidomide-red from Eu3+-cryptate-labeled CRBN; type: binding
T1 construct: Eu3+-cryptate-labeled CRBN
T1 sequence (Q96SW2 whole entry): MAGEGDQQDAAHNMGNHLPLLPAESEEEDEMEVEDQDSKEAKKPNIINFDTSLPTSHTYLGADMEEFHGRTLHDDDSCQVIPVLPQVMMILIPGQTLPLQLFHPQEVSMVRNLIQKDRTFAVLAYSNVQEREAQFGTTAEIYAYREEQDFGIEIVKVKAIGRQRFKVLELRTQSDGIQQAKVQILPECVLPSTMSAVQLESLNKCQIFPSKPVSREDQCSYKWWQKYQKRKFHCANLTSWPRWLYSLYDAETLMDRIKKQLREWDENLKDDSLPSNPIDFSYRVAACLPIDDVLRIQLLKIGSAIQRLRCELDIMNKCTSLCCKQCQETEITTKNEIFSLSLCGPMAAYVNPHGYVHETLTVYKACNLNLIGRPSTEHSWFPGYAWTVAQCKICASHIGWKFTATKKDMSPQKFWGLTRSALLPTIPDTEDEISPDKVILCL
From the text: TR-FRET displacement of thalidomide-red from Eu3+-cryptate-labeled CRBN on cereblon (CRBN) | displacement of thalidomide-red and binding of 1a and 2a to CRBN.

[8] = test system: KRAS (DNA, G4) AGGGCGGTGTGGGAATAGGGAA; experiment: fluorescence polarization (intrinsic pomalidomide fluorescence); conditions: 100 mM KCl; 10 mM Li-cacodylate, pH 7.4; ligand 0.2 µM; fit assumes two sites per G4; per site
[9] = test system: VEGFR (DNA, G4) GGGTACCCGGGTGAGGTGCGGGGT; experiment: as above; conditions: 100 mM KCl; 10 mM Li-cacodylate, pH 7.4; ligand 0.2 µM; fit assumes two sites per G4; per site
[10] = test system: PARP1 (DNA, G4) TGGGGTCCGAGGCGGGGCTTGGG; experiment: as above; conditions: 100 mM KCl; 10 mM Li-cacodylate, pH 7.4; ligand 0.2 µM; fit assumes two sites per G4; per site
[11] = test system: c-kit1 (DNA, G4) AGGGAGGGCGCTGGGAGGAGGG; experiment: as above; conditions: 100 mM KCl; 10 mM Li-cacodylate, pH 7.4; ligand 0.2 µM; fit assumes two sites per G4; per site
[12] = test system: VEGF (DNA, G4) CGGGGCGGGCCTTGGGCGGGGT; experiment: as above; conditions: 100 mM KCl; 10 mM Li-cacodylate, pH 7.4; ligand 0.2 µM; fit assumes two sites per G4; per site
[13] = test system: 19wt (DNA, G4) GGGGGAGGGGTACAGGGGTACAGGGG; experiment: as above; conditions: 100 mM KCl; 10 mM Li-cacodylate, pH 7.4; ligand 0.2 µM; fit assumes two sites per G4; per site
[14] = test system: TERRA (RNA, G4) UAAGGGUAAGGGUAAGGGUAAGGG; experiment: as above; conditions: 100 mM KCl; 10 mM Li-cacodylate, pH 7.4; ligand 0.2 µM; fit assumes two sites per G4; per site

Kd [1] [nM]	Kd [2] [nM]	Kd [3] [nM]	Kd [4] [nM]	Kd [5] [nM]	Kd [6] [nM]	Kd [7] [nM]	pIC50 (cereblon (CRBN))	Kd [8] [nM]	Kd [9] [nM]	Kd [10] [nM]	Kd [11] [nM]	Kd [12] [nM]	Kd [13] [nM]	Kd [14] [nM]	Structure (SMILES)
> 1200	278 ± 258	155 ± 29	110 ± 115	96 ± 28	> 1200	–	–	–	–	–	–	–	–	–	Cc1oc2nc1-c1nc(c(CCCNC(=O)CCOCCOCCOCCOCCNc3cccc4c3C(=O)N(C3CCC(=O)N(C)C3=O)C4=O)o1)-c1nc(co1)C(=O)N[C@@H](CCCCN)c1nc(co1)-c1nc(co1)-c1nc(co1)C(=O)N[C@H]2CCCCN (some centres unmarked)
> 1200	–	108 ± 75	–	65 ± 2	> 1200	30 ± 13	7.21	45 ± 35	27 ± 5	42 ± 40	39 ± 23	42 ± 38	103 ± 27	72 ± 39	Cc1oc2nc1-c1nc(c(CCCNC(=O)CNc3cccc4c3C(=O)N(C3CCC(=O)NC3=O)C4=O)o1)-c1nc(co1)C(=O)N[C@@H](CCCCN)c1nc(co1)-c1nc(co1)-c1nc(co1)C(=O)N[C@H]2CCCCN (some centres unmarked) [1a]
> 1200	–	33 ± 17	–	10 ± 5	> 1200	104 ± 53	–	19 ± 14	46 ± 18	39 ± 16	38 ± 41	4 ± 3	289 ± 184	26 ± 22	Cc1oc2nc1-c1nc(c(CCCNC(=O)CNc3cccc4c3C(=O)N(C3CCC(=O)N(C)C3=O)C4=O)o1)-c1nc(co1)C(=O)N[C@@H](CCCCN)c1nc(co1)-c1nc(co1)-c1nc(co1)C(=O)N[C@H]2CCCCN (some centres unmarked)
> 1200	–	356 ± 210	–	68 ± 56	> 1200	266 ± 178	7.05	103 ± 45	802 ± 325	817 ± 447	178 ± 22	46 ± 23	3402 ± 436	5 ± 4	Cc1oc2nc1-c1nc(c(CCCNC(=O)CCOCCOCCOCCOCCNc3cccc4c3C(=O)N(C3CCC(=O)NC3=O)C4=O)o1)-c1nc(co1)C(=O)N[C@@H](CCCCN)c1nc(co1)-c1nc(co1)-c1nc(co1)C(=O)N[C@H]2CCCCN (some centres unmarked) [2a]
